Activity calls are given as the source filed them. The rule behind the calls is not given here. *1 amine or outer side, *2 acyl side, *3 side chain or, on linkers, in order; H or OH if unused. Where a SMILES comes first, the peptide text is derived from it. Bridges are numbered along the chain shown (N, C = ends). Roman numbers before positions name the chains, in order. [ ]: non-standard residue; d: D form. The star is where a group is joined. Hexanoyl(6-succinimido-3yl) = O=C1CC([*:1])C(=O)N1CCCCCC(=O)[*:2]; Dolaproine = CO[C@@H]([C@@H]1CCCN1)[C@@H](C)C(=O)O; Dil = CC[C@H](C)[C@H](NC)[C@@H](CC(=O)O)OC; PABC = O=C(OCc1ccc(N[*:1])cc1)[*:2]; X1 = C[C@@H](N*)[C@@H](O)c1ccccc1; Cit = NC(=O)NCCC[C@H](N)C(=O)O; NMeV = CN[C@H](C(=O)O)C(C)C
Experiments:
[1] = Toxicity in male BALB/c nude mouse xenografted with KK-LC-1-positive human MKN-45 cells assessed as body weight loss at 0.3 mg/kg, iv administered twice a week for 3 weeks; type: organism-based; conditions: in vivo, 504 h
NUGC-4 [2] = test: Cell cycle arrest in KK-LC-1-positive human NUGC-4 cells assessed as increase accumulation at G2/M phase at 100 nM measured after 0 to 48 hrs by propidium iodide staining based flow cytometric analysis; type: functional; conditions: time 0-48 hrs, TDE = time-dependent effect
[3] = Ratio IC50 for cytotoxicity against KK-LC-1-negative human HGC-27 cells to IC50 for cytotoxicity against KK-LC-1-positive human MKN-45 cells
MKN-45 [4] = test: Induction of DNA damage in KK-LC-1-positive human MKN-45 cells assessed as double strand breaks by measuring increase in gamma-H2AX foci formation at 100 nM incubated for 24 hrs followed by exposure to 2 Gy gamma irradiation by immunofluorescence staining method; type: functional, cell-based
MKN-45 [5] = test: Induction of apoptosis in KK-LC-1-positive human MKN-45 cells at 100 nM incubated for 24 hrs followed by exposure to 2 Gy gamma irradiation by AnnexinV/PI-staining based flow cytometry; type: functional, cell-based
MKN-45 [6] = test: Cell cycle arrest in KK-LC-1-positive human MKN-45 cells assessed as increase accumulation at G2/M phase at 20 to 100 nM measured after 24 hrs by propidium iodide staining based flow cytometric analysis; type: functional; conditions: dose 20-100 nM, DDE = dose-dependent effect
MKN-45 [7] = test: Inhibition of colony formation in KK-LC-1-positive human MKN-45 cells assessed as decrease in colonies incubated for 24 hrs followed by exposure to 2 Gy gamma irradiation by crystal violet staining based clonogenic assay; type: functional, cell-based
[8] = Toxicity in male BALB/c nude mouse xenografted with KK-LC-1-positive human MKN-45 cells assessed as mouse death at 3 mg/kg, iv administered twice a week for 3 weeks; type: organism-based; conditions: in vivo, 504 h
[9] = Stability in human plasma assessed as compound remaining at 500 uM measured after 48 hrs by HPLC analysis; type: ADME, cell-free; conditions: read-out: Stability
[10] = Biodistribution in tumor of nude mouse xenografted with KK-LC-1-positive human NUGC-4 cells using Cy5-labeled compound at 10 nmol, iv and measured after 24 hrs by near-infrared imaging method; type: ADME, organism-based, Neoplasm; conditions: in vivo
[11] = Stability in PBS at 37 degreeC measured after 48 hrs by HPLC analysis; type: physicochemical; conditions: buffer
[12] = Toxicity in male BALB/c nude mouse xenografted with KK-LC-1-positive human MKN-45 cells assessed as body weight loss at 2 mg/kg, iv administered twice a week for 3 weeks; type: organism-based; conditions: in vivo, 504 h
MKN-45 [13] = test: Antitumor activity against KK-LC-1-positive human MKN-45 cells xenografted in male BALB/c nude mouse assessed as reduction in tumor volume at 0.3 mg/kg, iv administered twice a week for 3 weeks; type: functional; set-up: scale not given: the % may be the effect or the level left
MKN-45 [14] = test: Antitumor activity against KK-LC-1-positive human MKN-45 cells xenografted in male BALB/c nude mouse assessed as tumor volume at 0.3 mg/kg, iv administered twice a week for 3 weeks; type: functional
[15] = Ratio IC50 for cytotoxicity against KK-LC-1-negative human HGC-27 cells to IC50 for cytotoxicity against KK-LC-1-positive human NUGC-4 cells
NUGC-4 [16] = test: Inhibition of colony formation in KK-LC-1-positive human NUGC-4 cells assessed as decrease in colonies incubated for 24 hrs followed by exposure to 2 Gy gamma irradiation by crystal violet staining based clonogenic assay; type: functional, cell-based
NUGC-4 [17] = test: Antitumor activity against KK-LC-1-positive human NUGC-4 cells xenografted in male BALB/c nude mouse assessed as decrease in Ki67 at 0.3 mg/kg, iv administered once a week for 3 weeks followed by exposure to 2 Gy gamma irradiation for 2 consecutive days once a week for 3 weeks measured by immunohistochemical staining analysis; type: functional, organism-based
[18] = Toxicity in male BALB/c nude mouse xenografted with KK-LC-1-positive human MKN-45 cells assessed as effect on liver function at 0.3 mg/kg, iv administered twice a week for 3 weeks; type: organism-based; conditions: in vivo, 504 h
MKN-45 [19] = test: Antitumor activity against KK-LC-1-positive human MKN-45 cells xenografted in male BALB/c nude mouse assessed as reduction in tumor growth at 0.3 mg/kg, iv administered twice a week for 3 weeks; type: functional, organism-based
HGC-27 = test: Cytotoxicity against KK-LC-1-negative human HGC-27 cells incubated for 72 hrs by CCK-8 assay; type: functional, cell-based; conditions: HGC-27, 72 h
[20] = molecular target: T1, Kita-kyushu lung cancer antigen 1 (Homo sapiens) (UniProt Q5H943); test: Binding affinity to KK-LC-1 in KK-LC-1-positive human NUGC-4 cells using FITC-labeled compound at 1 to 1000 uM incubated for 30 mins and measured by flow cytometry assay; type: cell-based; conditions: dose 1-1000 µM
T1 sequence (whole entry): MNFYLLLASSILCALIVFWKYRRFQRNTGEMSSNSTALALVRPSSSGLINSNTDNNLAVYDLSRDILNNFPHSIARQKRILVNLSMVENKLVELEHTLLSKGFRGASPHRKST

[21] = Toxicity in male BALB/c nude mouse xenografted with KK-LC-1-positive human MKN-45 cells assessed as increase in survival of mouse at 0.3 mg/kg, iv administered twice a week for 3 weeks; type: organism-based; conditions: in vivo, 504 h
[22] = Toxicity in male BALB/c nude mouse xenografted with KK-LC-1-positive human NUGC-4 cells assessed as mouse survival at 0.3 mg/kg, iv administered once a week for 3 weeks followed by exposure to 2 Gy gamma irradiation for 2 consecutive days once a week for 3 weeks measured after 47 days; type: organism-based; conditions: in vivo
NUGC-4 [23] = test: Cell cycle arrest in KK-LC-1-positive human NUGC-4 cells assessed as accumulation at G2/M phase at 40 nM measured after 24 hrs by propidium iodide staining based flow cytometric analysis (reference value: 21.5 +/- 0.7 %); type: functional
[24] = Toxicity in male BALB/c nude mouse xenografted with KK-LC-1-positive human MKN-45 cells assessed as body weight loss at 1 mg/kg, iv administered twice a week for 3 weeks; type: organism-based; conditions: in vivo, 504 h

CC[C@H](C)[C@@H]([C@@H](CC(=O)N1CCC[C@H]1[C@H](OC)[C@@H](C)C(=O)N[C@H](C)[C@@H](O)c1ccccc1)OC)N(C)C(=O)[C@@H](NC(=O)[C@@H](NC(=O)[C@H](C(C)C)N(C)C(=O)OCc1ccc(NC(=O)[C@H](CCCNC(N)=O)NC(=O)[C@@H](NC(=O)CCCCCN2C(=O)CC(SC[C@H](N)C(=O)N[C@H]3CSSC[C@@H](C(=O)O)NC(=O)[C@H]([C@@H](C)O)NC(=O)[C@H]([C@@H](C)O)NC(=O)[C@H](CC(C)C)NC(=O)[C@H](C)NC(=O)[C@H]([C@@H](C)O)NC(=O)[C@H](CC(N)=O)NC(=O)[C@H](CCCCN)NC3=O)C2=O)C(C)C)cc1)C(C)C)C(C)C (stereo not given in full) (I: H-CCKNTALTTC-OH / II: V[Cit][PABC][NMeV]VV[Dil][Dolaproine]-X1; linker I:1-II:N via Hexanoyl(6-succinimido-3yl); disulfide I:2-I:10)
Activity [1]: Non-Toxic | Activity (NUGC-4 [2]): Tde | Ratio IC50 [3]: 100 | Activity (MKN-45 [4]): Active | Activity (MKN-45 [5]): Active | Activity (MKN-45 [6]): Dde | inhibition (MKN-45 [7]): Active | Activity [8]: Toxic | remaining at 48 h, 500 µM [9]: 13.2% | Drug uptake [10]: Active | Stability [11]: Stable | Activity [12]: Non-Toxic | Activity (MKN-45 [13]): 48.5% | Activity (MKN-45 [14]): 292.1 mm3 | Ratio IC50 [15]: 100 | inhibition (NUGC-4 [16]): Active | Activity (NUGC-4 [17]): Active | Activity [18]: Non-Toxic | Activity (MKN-45 [19]): Active | IC50 (HGC-27): 786 nM | Activity [20]: Active | Activity [21]: Non-Toxic | survival at 504 h [22]: 83.3% | Activity (NUGC-4 [23]): 49.53% | Activity [24]: Non-Toxic
